Measurements reported in patent US20230095520A1, “PHARMACEUTICAL COMPOSITION FOR PREVENTING OR TREATING CANCER COMPRISING AZOLE DERIVATIVES OR PHARMACEUTICALLY ACCEPTABLE SALT THEREOF” (Yungjin Pharm. Co., Ltd., priority 2020, published 2023).
pIC50: −log10 of the molar value.

Legend:
MOLM-13-GFP human cells = experiment: MOLM-13 orthotopic transplantation animal model; assay type: in vivo; conditions: NSG mouse, tail vein, 1 or 2 mg/kg (2D on/5D off) or 2 mg/kg BIW, 3 to 4 weeks, versus control group
Protocol: MOLM-13 cells showing cancer cell inhibitory effect were selected, and Compound 121 was tested as follows using an orthotopic transplantation model.
The animal model used for efficacy evaluation is an NSG (Jackson lab, #005557, USA) mouse lacking the IL-2 receptor gamma gene, in which the immune activity of T cells, B cells, and NK cells is suppressed, and the efficacy was evaluated in an orthotopic transplantation model of MOLM-13-GFP human cells. For the induction method, an orthotopic transplantation model was induced by injecting the cells in an amount of 5×10^5 cells/200 ul/mouse into the tail vein route. Four test groups were G1 excipient control group vehicle (saline), G2 No. 121 1 mg/kg (2D on/5D off), G3 No. 121 2 mg/kg (2D on/ 5D off), and G4 No. 121 2 mg/kg (BIW), and 5 animals per group were set. From the day after cell injection, the tail vein administration of Compound 121 was started at each dose and regimen for 3 to 4 weeks.

MDA-MB-468 cells = experiment: MDA-MB-468 cell proliferation inhibition (MTT); assay type: cell-based; conditions: MDA-MB-468 proliferation
Protocol: MDA-MB-468 cells are one of the triple-negative breast cancer (TNBC: negative for the expression of estrogen receptor, progesterone receptor and HER2) cells known as a malignant tumor that is difficult to diagnose at an early stage and has a high metastatic capacity, and these cells are used to test inhibition of proliferation and survival of breast cancer cells.
MDA-MB-468 cells cultured in a 96-well cell culture plate were treated with the compound of the present invention and cultured for 72 hours. Thereafter, the antiproliferative effect of the compound was assayed by the MTT method using a tetrazolium salt.

Huh7 = experiment: Cancer cell proliferation GI50 (CCK-8); assay type: cell-based; conditions: Homo sapiens, Huh7 (Huh-7), liver cancer, 72 hours
Protocol: (§1) The proliferation effect of SY-1365, which is known to have a proliferation inhibitory effect on various carcinoma cells, and the compound of the present invention on various cancer cells was measured and compared as GI50 (half maximal growth inhibitory concentration, the concentration at which cell proliferation is reduced by half).
(§2) Various carcinoma cells were cultured at 37° C. in a humidified condition in the presence of 5% CO2. Each cell cultured in a 96-well cell culture plate was treated with the compound of the present invention and cultured for 72 hours.
(§3) In this example, in order to confirm the proliferation inhibitory effect on various cancer cells, Compound 121 was tested as follows.
(§4) The cells were cultured with a culture medium shown in Table 9 below at 37° C. in a humidified condition in the presence of 5% CO2. Each cell cultured in a 96-well cell culture plate was treated with the compound of the present invention and cultured for 72 hours.

MDA-MB-468 = experiment: Cancer cell proliferation GI50 (CCK-8); assay type: cell-based; conditions: Homo sapiens, MDA-MB-468, breast cancer, 72 hours
Protocol: as §1, §2, §3, §4

Hep3B = experiment: Cancer cell proliferation GI50 (CCK-8); assay type: cell-based; conditions: Homo sapiens, liver cancer, 72 hours
Protocol: as §1, §2, §3, §4

MDA-MB-231 = experiment: Cancer cell proliferation GI50 (CCK-8); assay type: cell-based; conditions: Homo sapiens, MDA-MB-231, breast cancer, 72 hours
Protocol: as §1, §2, §3, §4

MV-4-11 cells = experiment: MV-4-11 cell proliferation inhibition (CCK-8); assay type: cell-based; conditions: Homo sapiens, MV4-11, MV-4-11 proliferation, 72 hours
How it was run: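 The FLT3-mutant AML line MV-4-11 was exposed to compound for 72 h. Antiproliferative effect was read with the tetrazolium-based CCK-8 method.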

OCI-AML2 = experiment: Cancer cell proliferation GI50 (CCK-8); assay type: cell-based; conditions: Homo sapiens, OCI-AML2, acute myeloid leukemia, 72 hours
Protocol: as §3, §4

NB4 = experiment: Cancer cell proliferation GI50 (CCK-8); assay type: cell-based; conditions: Homo sapiens, NB-4, NB4, acute promyelocytic leukemia, 72 hours
Protocol: as §3, §4

DU145 = experiment: Cancer cell proliferation GI50 (CCK-8); assay type: cell-based; conditions: Homo sapiens, DU-145, DU145, prostate cancer, 72 hours
Protocol: as §3, §4

[1] = target: T1, Recombinant purified human CDK7 (Homo sapiens, UniProt P50613); experiment: CDK7 activity inhibition, ADP-Glo kinase assay; assay type: biochemical; conditions: ATP 90 μM, MBP substrate, 2 hours 30° C.
T1 construct: purchased ThermoFisher PV3868
T1 sequence (P50613 whole entry): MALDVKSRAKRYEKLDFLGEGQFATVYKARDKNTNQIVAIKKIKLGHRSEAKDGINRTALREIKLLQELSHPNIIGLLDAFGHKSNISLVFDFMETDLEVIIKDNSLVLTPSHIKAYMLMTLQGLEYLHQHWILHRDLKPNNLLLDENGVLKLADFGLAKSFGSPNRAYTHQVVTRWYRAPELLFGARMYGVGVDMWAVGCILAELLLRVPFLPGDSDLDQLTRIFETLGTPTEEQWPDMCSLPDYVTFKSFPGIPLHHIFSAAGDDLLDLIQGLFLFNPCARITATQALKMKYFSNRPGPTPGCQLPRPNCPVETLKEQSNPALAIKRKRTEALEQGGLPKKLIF
T1 sequence (P51946 whole entry partner): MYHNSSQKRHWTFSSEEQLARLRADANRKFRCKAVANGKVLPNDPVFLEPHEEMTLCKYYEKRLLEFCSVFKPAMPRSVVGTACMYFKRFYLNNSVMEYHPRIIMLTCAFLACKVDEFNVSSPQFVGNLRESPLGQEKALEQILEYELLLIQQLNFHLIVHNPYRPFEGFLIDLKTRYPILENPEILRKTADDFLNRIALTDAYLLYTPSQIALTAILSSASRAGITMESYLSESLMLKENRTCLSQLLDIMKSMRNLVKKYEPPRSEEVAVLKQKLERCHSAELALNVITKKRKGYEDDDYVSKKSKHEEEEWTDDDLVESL
T1 sequence (P51948 whole entry partner): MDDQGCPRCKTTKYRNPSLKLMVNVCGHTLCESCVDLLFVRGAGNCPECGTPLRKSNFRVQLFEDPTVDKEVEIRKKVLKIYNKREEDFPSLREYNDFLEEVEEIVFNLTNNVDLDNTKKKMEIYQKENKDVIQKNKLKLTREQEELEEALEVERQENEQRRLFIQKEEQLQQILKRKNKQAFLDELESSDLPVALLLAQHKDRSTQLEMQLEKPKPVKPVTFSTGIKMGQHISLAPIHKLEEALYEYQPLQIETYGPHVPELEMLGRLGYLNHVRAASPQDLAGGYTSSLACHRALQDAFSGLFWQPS
How it was run: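 Human recombinant CDK7 (50 ng per reaction) in 40 mM Tris-Cl pH 7.5, 20 mM MgCl2, 0.1 mg/ml BSA, 50 μM DTT, with 1% DMSO. The reaction used 90 μM ATP and 0.2 μg/μl MBP substrate for 2 h at 30 °C. ADP formed was quantified by ADP-Glo luminescence to derive inhibition.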

HepG2 = experiment: Cancer cell proliferation GI50 (CCK-8); assay type: cell-based, human; conditions: Homo sapiens, HepG2, liver cancer, 72 hours
Protocol: as §1, §2, §3, §4

pIC50 (MDA-MB-468 cells; Homo sapiens, MDA-MB-468, 72 h): ≥ 7.85 | pIC50 (MDA-MB-468 cells; 72 hours): 7.85 | GI50 (Huh7): 7 nM | GI50 (MDA-MB-468): 4 nM | GI50 (Hep3B): 9 nM | GI50 (MDA-MB-231): 6 nM | pIC50 (MV-4-11 cells): 8.37 | GI50 (OCI-AML2): 7.74 nM | GI50 (NB4): 12.9 nM | GI50 (DU145): 11.5 nM | IC50 [1]: 4.2 nM | GI50 (HepG2): 14 nM
Structure (SMILES): CCc1cnc(NC(=O)[C@@H](C)c2cccc(-c3cnc(NC(=O)/C=C/CN(C)C)c(C#N)c3)c2)s1 [Compound 121, (S,E)-N-(3-cyano-5-(3-(1-((5-ethylthiazol-2-yl)amino)-1-oxopropan-2-yl)phenyl)pyridin-2-yl)-4-(dimethylamino)but-2-enamide]
survival rate (MOLM-13-GFP human cells; FIG. 11): increase in the survival rate | change in body weight (MOLM-13-GFP human cells; FIG. 12): constant amount of body weight gain
